Consider six molecules from ChEMBL document CHEMBL1201862, “PubChem BioAssay data set” (2004).

The source made the active and inactive calls. Some results are limits rather than exact numbers.

In test [1] the test system is HEK293. Nature of the test: inhibition of NOD1-driven NF-kB reporter – cell-based, luminescence, uHTS, primary screen (AID 1578). Format: functional. Particulars: Homo sapiens.
Test [2] has as its system HEK293. Nature of the test: cells. Particulars: Homo sapiens. Format: functional, cell-based.
The test system of test [3] is HEK293. Nature of the test: cells. It is filed as functional, cell-based. To be noted: Homo sapiens. The source holds these as a separate data set.
Test [4] deals with Nucleotide-binding oligomerization domain-containing protein 2 (Homo sapiens, UniProt Q9HC29). Nature of the test: inhibition of NOD2-driven NF-kB reporter – cell-based, luminescence, uHTS, HEK293 (AID 1566). Format: functional.
Sequence of Nucleotide-binding oligomerization domain-containing protein 2 (Q9HC29 whole entry, the tested form may be a part): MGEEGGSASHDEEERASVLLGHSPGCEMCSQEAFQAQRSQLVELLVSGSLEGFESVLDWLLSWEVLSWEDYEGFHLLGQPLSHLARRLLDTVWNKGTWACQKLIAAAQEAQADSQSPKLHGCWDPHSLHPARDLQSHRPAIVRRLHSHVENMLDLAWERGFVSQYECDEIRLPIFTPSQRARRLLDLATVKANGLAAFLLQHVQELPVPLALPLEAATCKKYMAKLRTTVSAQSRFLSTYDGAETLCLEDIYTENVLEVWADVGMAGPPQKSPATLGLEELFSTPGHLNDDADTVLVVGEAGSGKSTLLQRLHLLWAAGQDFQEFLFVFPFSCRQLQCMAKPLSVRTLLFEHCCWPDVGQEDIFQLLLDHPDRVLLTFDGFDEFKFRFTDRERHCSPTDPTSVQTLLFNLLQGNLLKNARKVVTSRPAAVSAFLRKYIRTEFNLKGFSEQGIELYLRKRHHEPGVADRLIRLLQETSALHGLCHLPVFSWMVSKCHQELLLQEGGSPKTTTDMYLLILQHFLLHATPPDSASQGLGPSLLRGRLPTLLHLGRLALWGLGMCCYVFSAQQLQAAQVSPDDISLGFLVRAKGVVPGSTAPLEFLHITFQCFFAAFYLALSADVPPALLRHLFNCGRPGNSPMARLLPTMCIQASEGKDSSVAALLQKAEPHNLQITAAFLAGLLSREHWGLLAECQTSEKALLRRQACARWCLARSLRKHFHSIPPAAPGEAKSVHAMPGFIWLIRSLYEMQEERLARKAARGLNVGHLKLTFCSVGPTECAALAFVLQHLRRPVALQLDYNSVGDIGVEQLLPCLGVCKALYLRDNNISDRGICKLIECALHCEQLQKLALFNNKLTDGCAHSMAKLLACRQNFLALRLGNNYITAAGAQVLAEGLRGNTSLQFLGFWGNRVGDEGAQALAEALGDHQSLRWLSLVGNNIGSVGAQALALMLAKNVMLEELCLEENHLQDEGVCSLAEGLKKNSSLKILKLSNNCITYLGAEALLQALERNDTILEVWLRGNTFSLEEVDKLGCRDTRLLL
Test [5] relates to HEK293. Nature of the test: NOD2 signaling inhibitors in MDP-stimulated cells, cell-based, uHTS, luminescence (AID 2001). It is filed as functional. To be noted: Homo sapiens.
For test [6], the system named is HEK293. Nature of the test: cells. It is filed as functional, cell-based. To be noted: Homo sapiens. The source holds these as a separate data set.
Test [7] has as its target T1, COUP transcription factor 2 (Homo sapiens, UniProt P24468).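 Note: HEK293 cells transiently cotransfected with COUP-TFII expression vector and reporter; luciferase reporter luminescence driven by COUP-TFII from the pX2-168 reporter plasmid.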
T1 sequence (P24468 whole entry): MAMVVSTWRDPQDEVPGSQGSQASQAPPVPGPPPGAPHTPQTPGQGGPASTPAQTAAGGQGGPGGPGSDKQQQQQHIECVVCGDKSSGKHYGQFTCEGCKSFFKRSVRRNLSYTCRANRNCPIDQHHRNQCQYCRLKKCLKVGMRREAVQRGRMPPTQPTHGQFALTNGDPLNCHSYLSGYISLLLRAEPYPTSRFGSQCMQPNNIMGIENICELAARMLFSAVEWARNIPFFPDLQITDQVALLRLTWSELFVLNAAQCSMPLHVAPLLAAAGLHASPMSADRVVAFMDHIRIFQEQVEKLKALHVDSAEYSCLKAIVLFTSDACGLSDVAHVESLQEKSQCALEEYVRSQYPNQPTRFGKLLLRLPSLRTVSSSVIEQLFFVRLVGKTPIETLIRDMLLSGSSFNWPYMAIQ
Nature of the test: Luminescence-based cell-based high throughput dose response assay to identify inhibitors of COUP-TFII (NR2F2). It is filed as functional.

A short description of test [8]: viability of PTEN-deleted HCT116 cells – cell-based, HCT116 PTEN knockout, dose response (AID 1047).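 Note: HCT116 colon tumor cells with PTEN knocked out; cells exposed to compound for 60 hours before readout; potency for loss of cell viability measured by luminescence.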 Format: functional.
The nature of test [9]: viability of HCT116 lacking mutant beta-catenin – cell-based, human colon tumor, dose response (AID 1045).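 Note: HCT116 colon tumor cells with beta catenin knocked out; cells exposed to compound for 60 hours.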 Format: functional.
For test [10], the target named is T2, Replicative DNA helicase DnaB (Mycobacterium tuberculosis, UniProt P9WMR3).
T2 sequence (P9WMR3 whole entry): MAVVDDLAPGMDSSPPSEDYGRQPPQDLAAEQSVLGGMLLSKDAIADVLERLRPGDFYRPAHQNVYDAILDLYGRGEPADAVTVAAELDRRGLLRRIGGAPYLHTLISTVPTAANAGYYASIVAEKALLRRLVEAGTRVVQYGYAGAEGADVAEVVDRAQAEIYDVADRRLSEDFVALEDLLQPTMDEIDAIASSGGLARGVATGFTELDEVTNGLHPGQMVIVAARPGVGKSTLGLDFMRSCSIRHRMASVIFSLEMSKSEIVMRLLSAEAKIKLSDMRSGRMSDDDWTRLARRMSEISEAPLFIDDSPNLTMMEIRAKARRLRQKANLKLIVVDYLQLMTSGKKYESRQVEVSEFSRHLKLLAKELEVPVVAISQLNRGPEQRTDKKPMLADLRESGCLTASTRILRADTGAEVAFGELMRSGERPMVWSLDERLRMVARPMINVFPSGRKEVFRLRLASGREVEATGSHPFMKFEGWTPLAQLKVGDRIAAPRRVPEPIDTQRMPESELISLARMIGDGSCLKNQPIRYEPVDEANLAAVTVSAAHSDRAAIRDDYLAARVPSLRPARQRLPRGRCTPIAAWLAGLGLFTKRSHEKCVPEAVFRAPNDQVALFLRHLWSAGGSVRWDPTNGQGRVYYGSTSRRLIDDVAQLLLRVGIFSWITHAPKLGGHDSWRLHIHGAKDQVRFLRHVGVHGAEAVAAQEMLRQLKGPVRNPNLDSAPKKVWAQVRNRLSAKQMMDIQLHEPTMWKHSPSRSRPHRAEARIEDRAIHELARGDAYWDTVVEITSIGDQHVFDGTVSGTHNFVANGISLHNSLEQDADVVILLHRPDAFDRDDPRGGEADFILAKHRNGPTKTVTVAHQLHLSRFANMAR
Nature of the test: DnaB intein splicing inhibitors, dose response, biochemical, cell-free fluorescence (AID 449749). Format: functional.

Test [11] concerns the target Heat shock protein HSP 90-alpha (Homo sapiens, UniProt P07900). Format: functional, organism-based.
For the next test, the target named is T3, Protein RecA (Mycobacterium tuberculosis, UniProt P9WHJ3).
T3 sequence (P9WHJ3 whole entry): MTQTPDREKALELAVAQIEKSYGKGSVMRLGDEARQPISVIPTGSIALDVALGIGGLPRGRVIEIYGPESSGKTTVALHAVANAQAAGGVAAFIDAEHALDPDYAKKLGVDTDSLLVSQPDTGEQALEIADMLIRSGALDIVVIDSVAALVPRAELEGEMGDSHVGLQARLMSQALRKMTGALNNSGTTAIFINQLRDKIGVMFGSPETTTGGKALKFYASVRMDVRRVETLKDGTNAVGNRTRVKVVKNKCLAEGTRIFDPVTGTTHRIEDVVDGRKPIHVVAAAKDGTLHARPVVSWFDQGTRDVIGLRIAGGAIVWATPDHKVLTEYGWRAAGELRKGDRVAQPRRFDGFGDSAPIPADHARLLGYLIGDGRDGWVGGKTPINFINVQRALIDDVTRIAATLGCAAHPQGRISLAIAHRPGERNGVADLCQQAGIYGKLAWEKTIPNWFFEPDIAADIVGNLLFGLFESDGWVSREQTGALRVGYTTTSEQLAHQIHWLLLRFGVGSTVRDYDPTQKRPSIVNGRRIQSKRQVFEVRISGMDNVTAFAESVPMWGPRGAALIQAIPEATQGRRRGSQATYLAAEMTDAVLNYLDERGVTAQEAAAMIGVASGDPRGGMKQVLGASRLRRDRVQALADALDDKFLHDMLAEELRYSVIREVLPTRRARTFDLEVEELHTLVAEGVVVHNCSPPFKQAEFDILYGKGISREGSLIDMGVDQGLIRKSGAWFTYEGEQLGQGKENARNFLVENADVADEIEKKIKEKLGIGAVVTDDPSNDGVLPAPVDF
Nature of the test: Fluorescence Cell-Free Homogeneous Dose Retest to Identify Inhibitors of RecA-Intein Splicing Activity. [Related pubchem assays (depositor defined):AID2097, AID2223, AID489010, AID492950]. Format: functional.

Test [12] concerns the target Alkaline phosphatase, placental type (Homo sapiens, UniProt P05187). Nature of the test: human placental alkaline phosphatase inhibition – biochemical, luminescence, confirmation (AID 1512). It is filed as functional.
The target in test [13] is T4, Alkaline phosphatase, tissue-nonspecific isozyme (Homo sapiens, UniProt P05186).
T4 sequence (P05186 whole entry): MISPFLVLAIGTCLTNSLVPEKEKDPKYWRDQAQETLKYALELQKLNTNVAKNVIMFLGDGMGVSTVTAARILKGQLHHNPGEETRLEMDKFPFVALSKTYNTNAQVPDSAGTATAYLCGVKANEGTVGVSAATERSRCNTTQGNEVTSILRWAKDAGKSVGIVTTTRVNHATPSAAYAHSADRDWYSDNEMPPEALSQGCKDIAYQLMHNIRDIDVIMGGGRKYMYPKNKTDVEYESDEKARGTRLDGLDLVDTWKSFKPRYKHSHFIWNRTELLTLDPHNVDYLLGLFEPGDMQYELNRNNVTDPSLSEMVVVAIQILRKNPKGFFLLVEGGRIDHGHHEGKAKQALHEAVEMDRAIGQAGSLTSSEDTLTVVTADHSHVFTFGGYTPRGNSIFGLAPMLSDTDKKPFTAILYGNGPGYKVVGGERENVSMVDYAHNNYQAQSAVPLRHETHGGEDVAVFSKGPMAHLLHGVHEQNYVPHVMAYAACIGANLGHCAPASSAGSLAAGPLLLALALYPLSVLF
Nature of the test: potency against alkaline phosphatase TNAP – biochemical, luminescent, dose response, SAR follow-up (AID 1056).

The target of test [14] is Glyceraldehyde-3-phosphate dehydrogenase (Homo sapiens, UniProt P04406).
Sequence of Glyceraldehyde-3-phosphate dehydrogenase (P04406 whole entry): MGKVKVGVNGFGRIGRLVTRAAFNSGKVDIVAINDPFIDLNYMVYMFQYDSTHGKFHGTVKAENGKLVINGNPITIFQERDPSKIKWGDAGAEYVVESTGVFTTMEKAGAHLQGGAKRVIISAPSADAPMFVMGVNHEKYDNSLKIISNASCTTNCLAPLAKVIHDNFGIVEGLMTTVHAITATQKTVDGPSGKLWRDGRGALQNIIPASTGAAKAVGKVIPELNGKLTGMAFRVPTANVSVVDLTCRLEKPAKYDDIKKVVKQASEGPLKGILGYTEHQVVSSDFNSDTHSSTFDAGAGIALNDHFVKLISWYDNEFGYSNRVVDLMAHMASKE
Test [15] in a line: THP-1 cell cytotoxicity, dose response, cytotoxicity control for non-replicating M. tuberculosis project (AID 489025). It is filed as functional.
Test [16] can be described thus: Vero E6 cell cytotoxicity, dose response, cytotoxicity control for non-replicating M. tuberculosis project, secondary assay (AID 492998). Particulars: Vero C1008. It is filed as functional, VeroE6.
A further test in a line: cells. Format: functional.
In test [17] the target is T5, Heat shock factor protein 1 (Mus musculus, UniProt P38532).
T5 sequence (P38532 whole entry): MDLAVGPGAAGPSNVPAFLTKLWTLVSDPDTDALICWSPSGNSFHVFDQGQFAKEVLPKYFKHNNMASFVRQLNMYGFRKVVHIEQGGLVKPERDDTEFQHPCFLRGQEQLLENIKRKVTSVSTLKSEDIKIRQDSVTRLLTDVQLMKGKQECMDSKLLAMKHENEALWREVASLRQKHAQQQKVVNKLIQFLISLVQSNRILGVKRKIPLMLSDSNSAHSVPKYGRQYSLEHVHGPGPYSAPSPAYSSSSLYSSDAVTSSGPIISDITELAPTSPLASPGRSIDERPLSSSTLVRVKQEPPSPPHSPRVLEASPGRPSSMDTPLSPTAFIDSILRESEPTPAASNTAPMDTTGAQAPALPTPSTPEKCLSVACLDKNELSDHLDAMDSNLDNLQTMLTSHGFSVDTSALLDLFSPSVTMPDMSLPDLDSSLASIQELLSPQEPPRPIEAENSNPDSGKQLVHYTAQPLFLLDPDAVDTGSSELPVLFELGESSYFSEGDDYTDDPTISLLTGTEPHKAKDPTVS
Nature of the test: enhancement of HSF1-driven luciferase signal – cell-based, NIH3T3, luminescence, dose retest, confirmation (AID 435004).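 Note: stress induced by proteasome inhibitor MG132 added 30 min after compound; luciferase reporter driven by HSF1 response element in NIH3T3 cells; actives raise luminescence as potentiators of the MG132 stress response.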 It is filed as functional.

Sequence of Alkaline phosphatase, placental type (P05187 whole entry): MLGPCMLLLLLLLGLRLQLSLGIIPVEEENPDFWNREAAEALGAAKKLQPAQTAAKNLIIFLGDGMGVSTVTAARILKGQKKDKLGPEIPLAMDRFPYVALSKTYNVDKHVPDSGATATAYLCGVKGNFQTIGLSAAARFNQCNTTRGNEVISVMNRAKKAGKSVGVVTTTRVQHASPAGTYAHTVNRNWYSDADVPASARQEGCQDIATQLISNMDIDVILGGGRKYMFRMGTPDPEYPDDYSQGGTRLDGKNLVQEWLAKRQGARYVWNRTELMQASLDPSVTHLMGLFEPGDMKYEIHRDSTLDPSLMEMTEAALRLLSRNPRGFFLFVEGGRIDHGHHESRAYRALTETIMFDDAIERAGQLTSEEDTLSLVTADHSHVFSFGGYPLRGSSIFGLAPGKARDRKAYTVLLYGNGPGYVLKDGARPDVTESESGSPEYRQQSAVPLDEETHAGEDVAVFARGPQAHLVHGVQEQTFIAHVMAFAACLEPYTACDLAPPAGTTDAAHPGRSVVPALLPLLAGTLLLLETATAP

For the molecule `Cc1nc2c(-c3ccc(Cl)cc3)cnn2c(N)c1-c1ccc(F)cc1`, the EC50 (with HEK293 [1]; in [4]) was > 20 µM (inactive) in each case. The half-inhibitory concentration (IC50) with HEK293 [2] is 2.34 µM (active); in the test with HEK293 [3], > 20 µM (inactive); in the test with HEK293 [5], > 20 µM (inactive); in the test on HEK293 [6] it was > 20 µM (inactive); in test [7] it was > 85.4 µM (inactive).
As for `CC(C)CC(=O)/C(=C\c1ccc(Cl)cc1Cl)n1cncn1`, the EC50 in the test on HEK293 [1] is > 20 µM (inactive); in test [4] it was > 20 µM (inactive); in test [8], 4.72 µM (active); in test [9], 4.31 µM (active); at Protein RecA, 11.2 µM (active). In addition, the IC50 in the test on HEK293 [2] is 4.25 µM (active); in the test on HEK293 [3] it was 9.81 µM (active); in the test with HEK293 [5], 7.85 µM (active); with HEK293 [6], > 20 µM (inactive). Further, the AC50 was 11.8 µM (active) in test [10] and 2.04 µM (active) in test [11].
In the case of `CCc1nc(SCC(=O)c2ccc(O)cc2O)n[nH]1`, the IC50 in test [12] and in test [13] was > 100 µM (inactive) in each case.
On to `CCc1ccc(-c2ccc(-c3nc(N)nn3-c3ccccc3)cc2)cc1`, for which the figures for the IC50 in test [14], in test [12] and in test [13] were > 100 µM (not active), > 100 µM (inactive) and > 100 µM (inactive), respectively.
With `O=C(N/N=C\c1ccc([N+](=O)[O-])s1)C1COc2ccccc2O1` (centres undefined), in the test with HEK293 [1], the concentration giving a half-maximal response (EC50) was 9.04 µM (active). In addition, the IC50 with HEK293 [2] was 19.1 µM (active); in the test on HEK293 [3], > 20 µM (inactive); with HEK293 [5], 16.2 µM (inactive); in “cells”, 5.68 µM (active). The values for the half-maximal cytotoxic concentration (CC50) in test [15] and in test [16] were 22.6 µM (active) and 13.3 µM (active), respectively.
For `COc1ccc(C(=O)Cn2c(C)nc([N+](=O)[O-])c2Br)cc1`, the CC50 in test [15] is > 40 µM (active); in test [16], > 20 µM (active). Besides, the EC50 in test [17] is 19.8 µM (active). Also, the IC50 in the test “cells” is 12.1 µM (active).
